Reference: ChEMBL document CHEMBL1201862, “PubChem BioAssay data set” (2004)
The source made the active and inactive calls.

What was measured:
[1] = target: Kappa-type opioid receptor (Homo sapiens, UniProt P41145); assay: SAR analysis of small molecule agonists of the kappa opioid receptor via a luminescent beta-arrestin assay - Set 3. [Related pubchem assays (depositor defined):AID1777, AID1785, AID1786, AID1966, AID2133, AID2136, AID2284, AID2500]; assay type: functional
[2] = target: G-protein coupled receptor 55 (Homo sapiens, UniProt Q9Y2T6); assay: GPR55 antagonists blocking LPI-driven arrestin recruitment, primary screen, imaging, U2OS, beta-arrestin-GFP, LPI agonist (AID 2013); assay type: functional;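 also: antagonist potency measured as reduced agonist-driven arrestin aggregation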
[3] = HIV-1 Env-mediated cell fusion inhibitors, dose response, CCR5-tropic Env (AID 2279); assay type: functional
[4] = Luminescence Cell-Based Dose Retest to Confirm Inhibitors of Cancer Stem Cells. [Related pubchem assays (depositor defined):AID2717, AID2721]; assay type: functional; conditions: Homo sapiens
[5] = target: T1, Peroxisome proliferator-activated receptor gamma (Homo sapiens, UniProt P37231); assay: PPARg ligand-binding domain binders, dose response, PPARg partial agonist project, biochemical, TR-FRET, LanthaScreen (AID 504446)
T1 sequence (P37231 whole entry): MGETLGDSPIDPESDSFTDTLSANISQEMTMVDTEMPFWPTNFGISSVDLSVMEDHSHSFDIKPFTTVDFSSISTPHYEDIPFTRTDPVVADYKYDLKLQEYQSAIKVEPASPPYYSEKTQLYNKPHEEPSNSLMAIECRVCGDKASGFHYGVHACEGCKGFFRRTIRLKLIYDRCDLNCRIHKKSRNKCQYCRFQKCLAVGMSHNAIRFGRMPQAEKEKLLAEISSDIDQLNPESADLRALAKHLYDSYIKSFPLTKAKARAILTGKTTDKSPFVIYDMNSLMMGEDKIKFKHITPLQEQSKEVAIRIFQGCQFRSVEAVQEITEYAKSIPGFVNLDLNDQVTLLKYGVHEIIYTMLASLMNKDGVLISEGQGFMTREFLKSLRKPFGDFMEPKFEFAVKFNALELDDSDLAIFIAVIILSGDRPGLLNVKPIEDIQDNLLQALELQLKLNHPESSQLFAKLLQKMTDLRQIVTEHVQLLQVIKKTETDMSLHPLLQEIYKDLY

[6] = target: T1, Peroxisome proliferator-activated receptor gamma; assay: PPARg ligand-binding domain binders, dose response, PPARg partial agonist project, biochemical, fluorescence polarization, PolarScreen (AID 504453)
[7] = target: T1, Peroxisome proliferator-activated receptor gamma; assay: PPARg partial agonists, dose response, cell-based, luminescence, assay provider (AID 504447); assay type: functional
[8] = target: Peroxisome proliferator-activated receptor alpha (Homo sapiens, UniProt Q07869); assay: Late stage assay provider counterscreen for partial agonists of the peroxisome proliferator-activated receptor gamma (PPARg): Luminescence-based cell-based dose response assay for partial agonists of the peroxisome proliferator-activated receptor alpha (PPARA). [Related pubchem assays (depositor defined):AID1051, AID1300, AID1319, AID1679, AID1808, AID504446, AID504447, AID504452, AID504453, AID631]; assay type: functional
[9] = tested on: Vero; assay: Vero cell cytotoxicity, cytotoxicity control for flavivirus capping enzyme inhibitors (AID 588742); assay type: functional; conditions: Chlorocebus sabaeus
[10] = target: Sphingosine 1-phosphate receptor 1 (Homo sapiens, UniProt P21453); assay: Fluorescence-based counterscreen assay for S1P4 agonists: Cell-based dose response high throughput screening assay to identify agonists of the Sphingosine 1-Phosphate Receptor 1 (S1P1). [Related pubchem assays (depositor defined):AID1509, AID1523, AID1801, AID463107, AID463118, AID463119, AID463122, AID463123, AID463129, AID463225, AID504400, AID504460]; assay type: functional
[11] = target: T2, Sphingosine 1-phosphate receptor 4 (Homo sapiens, UniProt O95977); assay: Fluorescence dose response cell-based high throughput screening assay for agonists of the Sphingosine 1-Phosphate Receptor 4 (S1P4). [Related pubchem assays: 1509 (Primary screen.), 1523 (Confirmation screen in triplicates.)]; assay type: functional
T2 sequence (O95977 whole entry): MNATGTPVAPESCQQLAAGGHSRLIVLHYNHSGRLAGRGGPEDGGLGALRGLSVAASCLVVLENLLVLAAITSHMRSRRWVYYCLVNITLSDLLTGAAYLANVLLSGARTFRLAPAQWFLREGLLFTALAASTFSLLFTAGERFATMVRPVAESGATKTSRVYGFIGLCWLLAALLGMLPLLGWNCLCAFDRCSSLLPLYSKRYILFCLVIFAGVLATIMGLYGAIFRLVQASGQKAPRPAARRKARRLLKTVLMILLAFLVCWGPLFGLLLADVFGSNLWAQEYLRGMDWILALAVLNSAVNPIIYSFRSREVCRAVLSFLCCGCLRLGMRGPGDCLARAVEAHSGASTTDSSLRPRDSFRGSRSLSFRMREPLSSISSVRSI

[12] = target: Tyrosine-protein phosphatase non-receptor type 7 (Homo sapiens, UniProt P35236); assay type: functional
[13] = target: T3, Tyrosine-protein phosphatase non-receptor type 22 (Homo sapiens, UniProt Q9Y2R2); assay type: functional
T3 sequence (Q9Y2R2 whole entry): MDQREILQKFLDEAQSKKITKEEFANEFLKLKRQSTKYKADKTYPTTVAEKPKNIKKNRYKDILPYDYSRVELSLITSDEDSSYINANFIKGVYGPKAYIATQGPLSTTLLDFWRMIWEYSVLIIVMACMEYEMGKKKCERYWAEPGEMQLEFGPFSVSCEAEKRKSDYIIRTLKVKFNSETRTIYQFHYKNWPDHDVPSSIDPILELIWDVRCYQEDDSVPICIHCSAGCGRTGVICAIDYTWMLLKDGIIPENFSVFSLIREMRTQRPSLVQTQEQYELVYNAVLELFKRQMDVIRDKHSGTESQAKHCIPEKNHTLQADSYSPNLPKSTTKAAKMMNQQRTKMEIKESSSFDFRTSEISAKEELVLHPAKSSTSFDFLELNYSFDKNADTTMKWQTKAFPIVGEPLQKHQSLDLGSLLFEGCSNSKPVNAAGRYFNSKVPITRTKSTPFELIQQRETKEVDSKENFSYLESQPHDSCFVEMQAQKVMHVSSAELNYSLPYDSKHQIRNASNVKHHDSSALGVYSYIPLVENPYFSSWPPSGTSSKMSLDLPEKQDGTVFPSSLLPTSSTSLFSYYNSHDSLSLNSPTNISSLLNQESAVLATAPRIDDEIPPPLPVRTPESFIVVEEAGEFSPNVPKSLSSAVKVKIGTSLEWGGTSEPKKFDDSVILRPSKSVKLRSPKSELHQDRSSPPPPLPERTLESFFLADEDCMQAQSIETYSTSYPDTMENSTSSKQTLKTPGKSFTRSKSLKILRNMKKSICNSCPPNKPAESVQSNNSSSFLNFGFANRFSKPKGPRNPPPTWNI

[14] = target: T3, Tyrosine-protein phosphatase non-receptor type 22; assay type: functional; remark: listed apart in the source
[15] = target: T4, fMet-Leu-Phe receptor (Homo sapiens, UniProt P21462); assay: FPR ligands, dose response (AID 519); assay type: functional
T4 sequence (P21462 whole entry): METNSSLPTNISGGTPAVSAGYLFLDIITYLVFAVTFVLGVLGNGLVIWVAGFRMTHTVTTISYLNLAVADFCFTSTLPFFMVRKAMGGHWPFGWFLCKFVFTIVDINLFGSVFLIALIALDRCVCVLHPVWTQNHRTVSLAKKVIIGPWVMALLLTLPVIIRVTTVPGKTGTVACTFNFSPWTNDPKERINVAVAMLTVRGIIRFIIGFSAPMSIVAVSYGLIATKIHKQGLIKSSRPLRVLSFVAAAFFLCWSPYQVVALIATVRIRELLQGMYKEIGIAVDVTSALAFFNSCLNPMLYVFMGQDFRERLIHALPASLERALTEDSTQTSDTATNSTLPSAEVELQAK

[16] = Vero cell cytotoxicity, dose response, cytotoxicity control for Vif-APOBEC3G degradation inhibitor project, Vero cells (AID 1117358); assay type: functional; conditions: Human immunodeficiency virus 1, Vero
[17] = target: Peroxisome proliferator-activated receptor gamma/Nuclear receptor coactivator 1 (Homo sapiens, UniProt P37231); assay: (§1) TR-FRET dose response biochemical High Throughput Screening assay for agonists of the steroid receptor coactivator 1 (SRC-1) recruitment by the peroxisome proliferator-activated receptor gamma (PPAR gamma): non-selective agonists. [Related pubchem assays (depositor defined):AID1300, AID1808, AID504735, AID631]; assay type: protein assay
[18] = target: Peroxisome proliferator-activated receptor gamma/Nuclear receptor coactivator 3 (Homo sapiens, UniProt P37231); assay: as §1, with “3 (SRC-3)” for “1 (SRC-1)”, “assays: 1301 (Confirmation screen.), 1048 (Primary screen.)]” for “assays (depositor defined):AID1300, AID1808, AID504735, AID631]”; assay type: functional
[19] = target: Peroxisome proliferator-activated receptor gamma/Nuclear receptor coactivator 2 (Homo sapiens, UniProt P37231); assay: TR-FRET dose response biochemical High Throughput Screening assay for agonists of the steroid receptor coactivator 2 (SRC-2) recruitment by the peroxisome proliferator-activated receptor gamma (PPAR gamma): non-selective agonists. [Related pubchem assays: 1297, 1032 ]; assay type: functional
[20] = target: Mitogen-activated protein kinase 10 (Homo sapiens, UniProt P53779); assay: Dose response biochemical screening assay for inhibitors of c-Jun N-Terminal Kinase 3 (JNK3). [Related pubchem assays: 746 ]
[21] = target: Major prion protein (Homo sapiens, UniProt P04156); assay type: functional, cell-based
[22] = cells
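For AC50 in this document: cells exposed to compound for roughly 70 hours or longer before luminescence read.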

Question: For `FC(F)(F)c1cc(CSc2nnc(-c3ccccn3)n2Cc2ccccc2Cl)ccc1Cl`, which EC50 [1] is on record?
Answer: 4.3 µM (active)

Question: Which results are given for `COc1ccc(-c2nn(-c3ccccc3)cc2/C=C2/SC(=S)N(CCC(=O)O)C2=O)c(C)c1`?
Answer: IC50 [2]: 0.665 µM (active); IC50 [3]: 47.4 µM (active); AC50 [4]: 9.19 µM (active); IC50 [5]: 0.194 µM (active); IC50 [6]: 0.152 µM (active); EC50 [7]: 0.283 µM (active); EC50 [8]: > 3 µM (inactive); CC50 [9]: > 40 µM (active)

Question: Which EC50 [10] does the source give for `Clc1ccc(/C=C\c2[nH]ccc3c4ccccc4nc2-3)cc1` here?
Answer: 2.18 µM (active)

Question: What about the EC50 [11] of the same compound?
Answer: 4.41 µM (active)

Question: With `O=C(O)CCCNc1cc(N2CCC3(CC2)OCCO3)c2noc3c2c1C(=O)c1ccccc1-3` as the compound, how does the IC50 [12] read?
Answer: 69.3 µM (active)

Question: And the IC50 [13]?
Answer: 68.9 µM (active)

Question: What about the IC50 [14] of the same compound?
Answer: 61.9 µM (active)

Question: What about the Ki [15] of the same compound?
Answer: 34.1 µM (inactive)

Question: What about the CC50 [16] of the same compound?
Answer: > 40 µM (active)

Question: Which EC50 [17] does the source give for `CC(Sc1ccc2ccccc2n1)C(=O)O` (configuration not stated) here?
Answer: > 79.4 µM (inactive)

Question: And the EC50 [18]?
Answer: > 79.4 µM (not active)

Question: And the EC50 [19]?
Answer: > 79.4 µM (not active)

Question: And the IC50 [20]?
Answer: 4.87 µM (active)

Question: And the IC50 [21]?
Answer: 1.56 µM (active)

Question: What about the IC50 [22] of the same compound?
Answer: > 138 µM (inactive)
